In ChEMBL document CHEMBL1150977, “A quantitative analysis of kinase inhibitor selectivity” (Nat Biotechnol, 2008) one finds Kd data, which are given here for five compounds.

Assay [1] has as its target Serine/threonine-protein kinase 16 (Homo sapiens, UniProt O75716).
A further assay concerns the target Activin receptor type-2B (Homo sapiens, UniProt Q13705).
Assay [2] deals with 5'-AMP-activated protein kinase catalytic subunit alpha-1 (Homo sapiens, UniProt Q13131).
Assay [3] concerns the target Serine/threonine-protein kinase N1 (Homo sapiens, UniProt Q16512).
The target in assay [4] is TRAF2 and NCK-interacting protein kinase (Homo sapiens, UniProt Q9UKE5).
TRAF2 and NCK-interacting protein kinase, sequence (Q9UKE5 whole entry): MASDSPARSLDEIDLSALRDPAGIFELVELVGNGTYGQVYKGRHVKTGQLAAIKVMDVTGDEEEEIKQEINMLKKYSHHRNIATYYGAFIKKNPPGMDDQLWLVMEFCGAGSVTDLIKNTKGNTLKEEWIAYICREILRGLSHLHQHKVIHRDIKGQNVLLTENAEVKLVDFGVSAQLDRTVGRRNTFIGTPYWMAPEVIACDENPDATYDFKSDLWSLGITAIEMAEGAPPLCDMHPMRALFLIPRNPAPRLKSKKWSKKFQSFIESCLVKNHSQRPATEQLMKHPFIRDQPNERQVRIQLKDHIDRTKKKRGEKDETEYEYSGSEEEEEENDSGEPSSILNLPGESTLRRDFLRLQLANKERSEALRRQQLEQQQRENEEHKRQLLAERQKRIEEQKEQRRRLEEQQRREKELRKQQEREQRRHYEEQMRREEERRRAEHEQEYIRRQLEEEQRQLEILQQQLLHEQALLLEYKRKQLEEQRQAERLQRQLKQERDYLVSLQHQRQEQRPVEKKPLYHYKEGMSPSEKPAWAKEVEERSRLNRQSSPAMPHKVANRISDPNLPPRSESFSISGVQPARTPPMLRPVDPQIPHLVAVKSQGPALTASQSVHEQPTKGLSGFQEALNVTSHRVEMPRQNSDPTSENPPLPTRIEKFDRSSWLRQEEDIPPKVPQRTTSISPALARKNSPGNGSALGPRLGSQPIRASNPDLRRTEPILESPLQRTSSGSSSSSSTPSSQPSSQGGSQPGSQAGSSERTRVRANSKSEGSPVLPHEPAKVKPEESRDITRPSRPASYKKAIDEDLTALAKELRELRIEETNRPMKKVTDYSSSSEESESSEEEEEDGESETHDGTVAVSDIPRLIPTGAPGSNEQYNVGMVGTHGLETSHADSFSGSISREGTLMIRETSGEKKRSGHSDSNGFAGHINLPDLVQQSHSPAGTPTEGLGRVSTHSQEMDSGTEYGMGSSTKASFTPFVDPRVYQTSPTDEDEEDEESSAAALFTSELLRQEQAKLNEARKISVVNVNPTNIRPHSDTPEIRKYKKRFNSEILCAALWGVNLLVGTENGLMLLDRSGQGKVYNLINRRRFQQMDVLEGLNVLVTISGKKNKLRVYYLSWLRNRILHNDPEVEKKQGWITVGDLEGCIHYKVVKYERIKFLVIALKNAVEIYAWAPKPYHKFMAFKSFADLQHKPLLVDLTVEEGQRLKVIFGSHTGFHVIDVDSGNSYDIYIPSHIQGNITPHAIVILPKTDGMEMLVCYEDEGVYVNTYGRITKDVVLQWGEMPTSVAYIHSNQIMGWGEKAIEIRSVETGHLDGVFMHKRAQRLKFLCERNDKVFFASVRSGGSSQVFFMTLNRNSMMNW
Assay [5] has as its target Tyrosine-protein kinase ABL2 (Homo sapiens, UniProt P42684).
For assay [6], the target named is Mitogen-activated protein kinase 10 (Homo sapiens, UniProt P53779).
Mitogen-activated protein kinase 10, sequence (P53779 whole entry): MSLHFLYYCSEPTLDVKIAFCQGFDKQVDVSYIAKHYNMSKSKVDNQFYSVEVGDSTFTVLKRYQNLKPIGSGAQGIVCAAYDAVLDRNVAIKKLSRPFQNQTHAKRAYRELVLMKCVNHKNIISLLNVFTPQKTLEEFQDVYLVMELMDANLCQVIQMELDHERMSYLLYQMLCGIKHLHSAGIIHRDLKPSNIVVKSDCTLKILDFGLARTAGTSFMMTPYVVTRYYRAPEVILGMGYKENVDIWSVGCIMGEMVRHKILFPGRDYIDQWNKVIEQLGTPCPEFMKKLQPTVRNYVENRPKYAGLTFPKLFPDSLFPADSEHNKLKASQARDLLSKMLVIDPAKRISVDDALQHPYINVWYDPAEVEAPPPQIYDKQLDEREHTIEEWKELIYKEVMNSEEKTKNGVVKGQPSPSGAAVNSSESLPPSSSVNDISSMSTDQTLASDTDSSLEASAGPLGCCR
The target of assay [7] is Tyrosine-protein kinase ABL1 (Homo sapiens, UniProt P00519, Q252H).
Assay [8] addresses T1, Interleukin-1 receptor-associated kinase 3 (Homo sapiens, UniProt Q9Y616).
T1 sequence (Q9Y616 whole entry): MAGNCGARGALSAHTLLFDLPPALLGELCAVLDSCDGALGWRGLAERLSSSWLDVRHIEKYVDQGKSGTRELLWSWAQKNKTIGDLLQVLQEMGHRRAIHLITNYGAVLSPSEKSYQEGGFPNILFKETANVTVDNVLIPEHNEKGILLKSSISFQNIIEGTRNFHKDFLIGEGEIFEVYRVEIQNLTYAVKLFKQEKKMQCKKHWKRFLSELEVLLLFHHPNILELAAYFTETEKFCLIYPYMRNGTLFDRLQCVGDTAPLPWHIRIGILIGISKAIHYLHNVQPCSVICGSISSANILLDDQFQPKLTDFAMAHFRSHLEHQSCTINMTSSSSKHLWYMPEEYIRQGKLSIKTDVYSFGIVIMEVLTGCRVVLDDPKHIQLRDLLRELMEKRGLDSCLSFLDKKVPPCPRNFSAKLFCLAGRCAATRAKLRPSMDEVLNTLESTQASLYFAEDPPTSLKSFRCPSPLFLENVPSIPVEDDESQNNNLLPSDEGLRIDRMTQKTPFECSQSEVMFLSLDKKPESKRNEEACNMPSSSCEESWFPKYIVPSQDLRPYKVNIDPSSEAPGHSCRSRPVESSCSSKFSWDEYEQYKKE

Assay [9] addresses T2, Ankyrin repeat and protein kinase domain-containing protein 1 (Homo sapiens, UniProt Q8NFD2).
T2 sequence (Q8NFD2 whole entry): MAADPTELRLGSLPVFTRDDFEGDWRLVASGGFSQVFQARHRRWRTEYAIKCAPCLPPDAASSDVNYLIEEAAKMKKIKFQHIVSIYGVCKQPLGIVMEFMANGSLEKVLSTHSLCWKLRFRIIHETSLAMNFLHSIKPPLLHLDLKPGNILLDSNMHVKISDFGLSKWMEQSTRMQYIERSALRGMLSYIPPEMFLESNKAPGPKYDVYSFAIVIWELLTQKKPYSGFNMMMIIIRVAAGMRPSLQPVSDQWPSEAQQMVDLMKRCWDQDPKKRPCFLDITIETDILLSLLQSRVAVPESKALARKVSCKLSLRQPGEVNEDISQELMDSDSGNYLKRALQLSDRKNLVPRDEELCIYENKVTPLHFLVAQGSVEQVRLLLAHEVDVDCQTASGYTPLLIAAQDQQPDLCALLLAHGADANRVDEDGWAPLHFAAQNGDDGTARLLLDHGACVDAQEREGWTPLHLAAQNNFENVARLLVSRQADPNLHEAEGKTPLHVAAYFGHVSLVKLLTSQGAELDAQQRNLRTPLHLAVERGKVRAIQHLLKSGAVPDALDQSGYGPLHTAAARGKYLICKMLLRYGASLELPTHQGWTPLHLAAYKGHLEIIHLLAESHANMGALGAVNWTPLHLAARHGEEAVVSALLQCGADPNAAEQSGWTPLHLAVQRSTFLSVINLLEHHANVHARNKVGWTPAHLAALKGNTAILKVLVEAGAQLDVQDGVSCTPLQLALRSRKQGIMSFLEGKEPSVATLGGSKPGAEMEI

In assay [10] the target is Tyrosine-protein kinase Yes (Homo sapiens, UniProt P07947).
Assay [11] concerns the target T3, Muscle, skeletal receptor tyrosine-protein kinase (Homo sapiens, UniProt O15146).
T3 sequence (O15146 whole entry): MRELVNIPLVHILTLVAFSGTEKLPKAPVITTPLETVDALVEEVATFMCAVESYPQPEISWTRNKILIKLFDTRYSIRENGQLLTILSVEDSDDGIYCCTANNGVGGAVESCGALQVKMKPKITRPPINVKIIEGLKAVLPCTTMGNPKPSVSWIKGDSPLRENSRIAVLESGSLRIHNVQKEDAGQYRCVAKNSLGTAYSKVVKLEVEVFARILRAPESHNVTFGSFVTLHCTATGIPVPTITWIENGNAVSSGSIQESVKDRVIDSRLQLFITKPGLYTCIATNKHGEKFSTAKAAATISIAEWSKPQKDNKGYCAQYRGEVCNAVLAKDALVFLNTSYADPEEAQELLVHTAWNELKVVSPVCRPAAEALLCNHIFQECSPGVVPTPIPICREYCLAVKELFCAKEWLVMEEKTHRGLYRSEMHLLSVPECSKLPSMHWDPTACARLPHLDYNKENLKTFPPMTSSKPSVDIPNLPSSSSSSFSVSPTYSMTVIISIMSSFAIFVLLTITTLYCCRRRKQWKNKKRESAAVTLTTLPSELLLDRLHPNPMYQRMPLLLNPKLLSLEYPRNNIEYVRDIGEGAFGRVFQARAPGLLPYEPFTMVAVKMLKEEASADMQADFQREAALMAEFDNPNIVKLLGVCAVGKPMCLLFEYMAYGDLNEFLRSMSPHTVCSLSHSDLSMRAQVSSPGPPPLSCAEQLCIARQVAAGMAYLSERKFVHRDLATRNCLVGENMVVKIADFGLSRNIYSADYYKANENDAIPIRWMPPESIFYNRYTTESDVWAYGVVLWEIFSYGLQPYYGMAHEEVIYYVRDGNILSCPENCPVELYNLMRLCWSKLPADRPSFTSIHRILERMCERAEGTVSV

Assay [12] addresses Tyrosine-protein kinase ABL1 (Homo sapiens, UniProt P00519, T315I).
For assay [13], the target named is Mitogen-activated protein kinase kinase kinase kinase 1 (Homo sapiens, UniProt Q92918).
Mitogen-activated protein kinase kinase kinase kinase 1, sequence (Q92918 whole entry): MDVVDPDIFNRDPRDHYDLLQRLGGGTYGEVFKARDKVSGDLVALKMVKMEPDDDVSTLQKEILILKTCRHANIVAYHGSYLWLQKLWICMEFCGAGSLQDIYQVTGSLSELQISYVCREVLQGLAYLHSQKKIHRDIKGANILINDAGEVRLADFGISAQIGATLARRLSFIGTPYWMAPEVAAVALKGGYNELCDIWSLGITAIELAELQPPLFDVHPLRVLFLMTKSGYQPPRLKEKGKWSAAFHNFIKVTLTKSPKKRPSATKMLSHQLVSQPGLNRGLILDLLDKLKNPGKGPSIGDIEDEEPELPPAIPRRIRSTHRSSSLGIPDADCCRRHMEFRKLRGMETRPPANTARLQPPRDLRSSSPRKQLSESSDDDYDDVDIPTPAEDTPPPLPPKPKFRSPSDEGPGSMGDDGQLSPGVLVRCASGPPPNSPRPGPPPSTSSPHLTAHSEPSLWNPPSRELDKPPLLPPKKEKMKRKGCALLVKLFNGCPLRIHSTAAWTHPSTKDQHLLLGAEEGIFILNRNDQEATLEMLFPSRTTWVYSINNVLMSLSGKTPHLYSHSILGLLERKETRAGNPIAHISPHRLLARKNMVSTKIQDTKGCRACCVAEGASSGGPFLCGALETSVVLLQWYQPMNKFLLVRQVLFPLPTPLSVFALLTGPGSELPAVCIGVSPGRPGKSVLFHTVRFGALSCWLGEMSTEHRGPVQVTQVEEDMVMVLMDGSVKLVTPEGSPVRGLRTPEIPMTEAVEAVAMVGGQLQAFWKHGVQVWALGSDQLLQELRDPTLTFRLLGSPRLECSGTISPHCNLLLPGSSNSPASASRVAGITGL
The target in assay [14] is Serine/threonine-protein kinase 33 (Homo sapiens, UniProt Q9BYT3).
Serine/threonine-protein kinase 33, sequence (Q9BYT3 whole entry): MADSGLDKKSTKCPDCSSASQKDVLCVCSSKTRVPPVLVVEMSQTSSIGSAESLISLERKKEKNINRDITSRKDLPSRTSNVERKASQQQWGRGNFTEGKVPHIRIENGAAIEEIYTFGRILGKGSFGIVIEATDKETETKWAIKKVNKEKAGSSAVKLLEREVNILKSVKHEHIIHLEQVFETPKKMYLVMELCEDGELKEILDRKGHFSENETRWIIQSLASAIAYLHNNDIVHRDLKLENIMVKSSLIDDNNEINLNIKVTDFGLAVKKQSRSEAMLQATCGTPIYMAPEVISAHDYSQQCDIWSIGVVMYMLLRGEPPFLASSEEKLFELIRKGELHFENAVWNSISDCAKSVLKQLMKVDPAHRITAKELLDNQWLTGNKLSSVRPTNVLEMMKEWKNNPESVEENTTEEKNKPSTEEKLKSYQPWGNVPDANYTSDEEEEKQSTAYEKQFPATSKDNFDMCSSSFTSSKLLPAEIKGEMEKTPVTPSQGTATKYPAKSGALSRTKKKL
Assay [15] deals with Activin receptor type-1-like (Homo sapiens, UniProt P37023).

Serine/threonine-protein kinase 16, sequence (O75716 whole entry): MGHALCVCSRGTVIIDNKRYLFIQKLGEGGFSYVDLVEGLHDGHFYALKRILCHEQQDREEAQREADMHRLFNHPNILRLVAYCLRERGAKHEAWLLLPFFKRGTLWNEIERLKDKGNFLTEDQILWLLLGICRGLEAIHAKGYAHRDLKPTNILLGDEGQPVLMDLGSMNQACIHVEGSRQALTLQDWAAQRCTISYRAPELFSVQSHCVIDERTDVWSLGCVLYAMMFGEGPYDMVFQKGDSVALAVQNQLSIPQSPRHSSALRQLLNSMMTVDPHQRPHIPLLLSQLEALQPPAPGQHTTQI
Serine/threonine-protein kinase N1, sequence (Q16512 whole entry): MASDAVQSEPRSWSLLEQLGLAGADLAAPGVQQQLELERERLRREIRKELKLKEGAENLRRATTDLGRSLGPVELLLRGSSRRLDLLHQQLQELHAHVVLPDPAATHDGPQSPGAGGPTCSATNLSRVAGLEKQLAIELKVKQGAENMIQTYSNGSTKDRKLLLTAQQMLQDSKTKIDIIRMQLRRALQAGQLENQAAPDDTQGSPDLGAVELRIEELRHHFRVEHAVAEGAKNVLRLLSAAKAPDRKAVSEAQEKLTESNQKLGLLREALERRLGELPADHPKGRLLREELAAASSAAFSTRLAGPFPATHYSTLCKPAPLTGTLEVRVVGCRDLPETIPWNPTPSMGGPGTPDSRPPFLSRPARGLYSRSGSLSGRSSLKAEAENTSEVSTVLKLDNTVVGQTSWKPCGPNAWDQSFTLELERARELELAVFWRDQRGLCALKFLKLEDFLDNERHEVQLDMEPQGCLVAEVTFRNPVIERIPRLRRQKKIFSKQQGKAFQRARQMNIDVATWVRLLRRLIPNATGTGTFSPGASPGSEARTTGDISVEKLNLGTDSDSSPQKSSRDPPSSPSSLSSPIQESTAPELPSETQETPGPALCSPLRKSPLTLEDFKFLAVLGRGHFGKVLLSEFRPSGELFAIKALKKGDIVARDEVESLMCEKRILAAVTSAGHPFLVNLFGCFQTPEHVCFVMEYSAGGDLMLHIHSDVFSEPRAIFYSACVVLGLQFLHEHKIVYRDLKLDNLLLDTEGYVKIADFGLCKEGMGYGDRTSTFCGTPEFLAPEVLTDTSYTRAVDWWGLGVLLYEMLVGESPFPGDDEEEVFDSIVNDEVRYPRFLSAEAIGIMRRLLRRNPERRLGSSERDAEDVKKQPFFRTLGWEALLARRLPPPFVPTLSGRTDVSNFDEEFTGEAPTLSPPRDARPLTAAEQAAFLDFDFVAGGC
Activin receptor type-2B, sequence (Q13705 whole entry): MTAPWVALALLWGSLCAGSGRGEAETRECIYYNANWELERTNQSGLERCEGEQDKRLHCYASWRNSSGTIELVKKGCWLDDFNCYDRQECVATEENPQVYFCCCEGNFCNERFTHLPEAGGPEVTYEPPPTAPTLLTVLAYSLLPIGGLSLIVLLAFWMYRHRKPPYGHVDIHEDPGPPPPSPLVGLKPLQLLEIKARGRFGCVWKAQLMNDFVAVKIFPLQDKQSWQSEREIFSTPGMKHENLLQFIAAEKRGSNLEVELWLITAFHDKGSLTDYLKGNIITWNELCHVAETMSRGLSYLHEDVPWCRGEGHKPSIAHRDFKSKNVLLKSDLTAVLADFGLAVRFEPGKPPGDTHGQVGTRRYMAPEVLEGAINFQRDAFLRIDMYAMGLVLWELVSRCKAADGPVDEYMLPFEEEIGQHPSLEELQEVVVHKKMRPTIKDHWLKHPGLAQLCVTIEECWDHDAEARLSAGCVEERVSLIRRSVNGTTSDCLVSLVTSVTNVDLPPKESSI

As to `COCC(=O)NC/C=C/c1ccc2ncnc(Nc3ccc(Oc4ccc(C)nc4)c(C)c3)c2c1` [CP-724714], the Kd (in assay [1]; at Activin receptor type-2B; in assay [2]; in assay [3]; in [4]; in assay [5]) was greater than 10 µM each time. Also, the Kd in assay [6], in [7], in [8], in assay [9], in assay [10] and in [11] was greater than 10 µM throughout. Further, the Kd in [12], in [13], in assay [14] and in assay [15] was greater than 10 µM throughout.

Regarding `Nc1nc(Nc2ccc(S(N)(=O)=O)cc2)nn1C(=O)c1c(F)cccc1F` [JNJ-7706621], the Kd is 5.9 µM at Activin receptor type-2B; greater than 10 µM in [3]; greater than 10 µM in assay [4]; greater than 10 µM in [5]; 3.4 µM in assay [8]; greater than 10 µM in assay [10]. The Kd in assay [11] is greater than 10 µM; in assay [13], 0.12 µM; in [14], greater than 10 µM.

As for `CCOc1cc2ncc(C#N)c(Nc3ccc(F)c(Cl)c3)c2cc1NC(=O)/C=C/CN(C)C` [PELITINIB], the Kd (in assay [1]; on Activin receptor type-2B; in assay [2]; in assay [3]; in [6]; in assay [8]) was greater than 10 µM in each case. Further, the dissociation constant Kd was greater than 10 µM in [9], 1.1 µM in assay [10], greater than 10 µM in [11] and greater than 10 µM in assay [15].

Consider `Oc1ccc(-c2nc(-c3ccncc3)c(-c3ccc(F)cc3)[nH]2)cc1` [SB-202190], for which the Kd in assay [1] is greater than 10 µM; on Activin receptor type-2B, 4.8 µM; in assay [2] it was greater than 10 µM; in assay [3], greater than 10 µM; in assay [4], 1.6 µM; in assay [5], greater than 10 µM. The Kd is 0.042 µM in assay [6]; greater than 10 µM in [7]; greater than 10 µM in assay [8]; greater than 10 µM in assay [9]; greater than 10 µM in [10]; greater than 10 µM in [11]. Moreover, the Kd in [12], in assay [13], in assay [14] and in [15] was greater than 10 µM each time.

As for `NC(=O)c1ccc(-c2nc(-c3ccc4c(c3)OCO4)c(-c3ccccn3)[nH]2)cc1` [SB-431542], the Kd (in assay [1]; at Activin receptor type-2B; in assay [2]; in [3]; in [4]; in [5]) was greater than 10 µM in each case. The Kd in assay [6], in [7], in assay [8], in assay [9], in [10] and in assay [11] was greater than 10 µM throughout. In addition, the Kd in assay [12], in assay [13], in [14] and in assay [15] was greater than 10 µM each time.
